This is an account of results in PMC10065791 (eLife, 2023).

Assay [1] deals with wild-type virus NL4-3. In words: TZM infection assay (cell culture-based viral inhibition), wild-type virus. Also on record: species or system HIV-1. The following applies: Human immunodeficiency virus 1, NL43; wild-type NL4-3 virus; concentration at time of virus production reducing infectivity by 50%; TZM-bl readout. As to the method:
PI dilutions were prepared by taking 10 µM stocked and performing a fivefold serial dilution using RPMI media (final drug concentration is […]). One dilution of drug was added to each well of a 24-well plate and repeated so each virus would have a full set of dilutions. Viruses for the assay were made by seeding 3 × 10^6 CEM cells in a 24-well plate and incubating with 250 µl of virus at 37°C for 2–3 hr before bringing the culture to 10 ml with RPMI media. After 48 hr, the medium was changed and repeated every 48 hr after until the culture had undergone CPE. Infected CEM cells were collected and diluted so that 1 ml of cells could be plated in each well containing a unique drug dilution. Then 24 hr later the virus supernatant was collected from each well followed by filtering through a […] then placed in –80°C. Viruses were thawed and added to 96-well plates in triplicate. TZM-bl cells were collected and diluted to a concentration of 2 × 10^5 cells/ml, 100 µl were added on top of the pre-plated viruses. Plates were kept in 37°C, 5% CO2 in an incubator for 48 hr. After 48 hr, the cells in the plates were lysed by removing the medium, washing two times with 100 µl PBS, and then lysed with 1× lysis buffer (made from 5× Promega Firefly Lysis Buffer). Plates were frozen for at least 24 hr and then thawed for 2 hr before analyzing with Promega Firefly Luciferase Kit on a luminometer. Data was analyzed with Prism 7 to fit sigmoidal dose–response curves.

Assay [2] has as its system HIV-1 NL4-3 wild-type virus. In words: Selection for resistance in CEMx174 culture with escalating inhibitor, start wild-type virus, Primer ID deep sequencing. The assay is classed as cell-based. The following applies: passage 75, [PI] 5000 nM. How it is done:
. The selection experiments were performed under two separate starting conditions: first when the starting virus was generated from the NL4-3 clone (this clone closely approximates the clade B consensus for the protease amino acid sequence and will be referred to as ‘wild type’), then again when the starting virus was a mixture of 26 isogenic viruses each with a single mutation associated with drug resistance in the NL4-3 background. […]. For technical reasons, only five of the selections starting with the mixture of mutants reached an inhibitor concentration as high as 400 nM and are reported here (Figure 2—figure supplement 3).
Resistance mutations selected in the protease coding domain during the escalating selective pressure of increasing PI concentration were examined at various timepoints using a next-generation sequencing (NGS) protocol that included Primer ID with the MiSeq platform ([Zhou et al., 2015]). We first examined the sequence of the most abundant variant in each of the two selection schemes present at the highest inhibitor concentration reached (Figure 2A). For those selections that reached 5 μM, 8–14 mutations were present in the most abundant variant. Typically the next two most abundant variants in the population differed by a single amino acid, and on average the three most abundant variants in the 5 μM cultures accounted for 88% of the total viral population (Figure 2—source data 1). Evolution of resistance followed two pathways, one based on I50V and one based on I84V. In three cultures, V2wt, V5wt, and V2mut (which reached either 4 or 5 μM final drug concentration; V2wt indicates the virus pool selected with UMASS-2 starting with wild-type virus), these two mutations, I84V and I50V, became linked on the same genome (Figure 2A) showing they are not mutually exclusive; […].
An aliquot of 3 × 10^6 CEMx174 cells was incubated at 37°C for 2–3 hr with 250 µl of a virus stock generated from the HIV-1 infectious molecular clone pNL4-3. The culture volume was then brought to 10 ml with RPMI medium. […] After 48 hr and every 48 hr after, the cells were pelleted by centrifugation and 10 ml of fresh medium and inhibitors were added. When the culture had undergone extensive cytopathic effect (CPE) indicative of viral replication, the supernatant medium and the cells were harvested separately and stored at –80°C. The virus-containing supernatant was used to start the next round of infection, and after several rounds at the initial concentration, the inhibitor concentration was increased 1.5-fold at each subsequent round of virus passage.
We used the PID protocol to prepare MiSeq PID libraries with multiplexed primers. Viral RNA was extracted from plasma samples using the QIAamp viral RNA mini kit (QIAGEN, Hilden, Germany). Complementary DNA (cDNA) was synthesized using a cDNA primer mixture targeting protease (PR) with a block of random nucleotides in each cDNA primer serving as the PID, and SuperScript III RT (Thermo Fisher). After two rounds of bead purification of the cDNA, we amplified the cDNA using a mixture of a forward primer that targeted the upstream coding region, followed by a second round of PCR to incorporate the Illumina adaptor sequences. Gel-purified libraries were pooled and sequenced using the MiSeq 300 base paired-end sequencing protocol (Illumina). The sequencing covered the HIV-1 PR region (HXB2 2648-2914, 3001-3257).
We used the Illumina bcl2fastq pipeline for the initial processing and constructed template consensus sequences (TCSs) with TCS pipeline version 1.33 (https://github.com/SwanstromLab/PID) ([Zhou, 2019]). We then aligned TCSs to an HXB2 reference to remove sequences not at the targeted region or that had large deletions. We used the Entropy tool at LANL (https://www.hiv.lanl.gov/content/sequence/ENTROPY/entropy.html) to calculate entropy for each specimen. The sequencing data is available at NIH Sequencing Read Archive (SRA) under BioProject ID PRJNA853351.

The target in assay [3] is T1, wild-type NL4-3 protease (Human immunodeficiency virus type 1 group M subtype B, UniProt P12497, Q495K).
T1 construct: the gene encoding the desired HIV-1 protease was subcloned into the heat-inducible pXC35 expression vector; made in house
The arrangement: method as in Lockbaum et al. (ACS Infect Dis. 2019 Feb 8; 5 (2): 316–325). The following applies: previously reported, ref Lockbaum et al. (ACS Infect Dis. 2019 Feb 8, 5 (2): 316–325), read-out: Ki WT; cited from earlier work.

Assay [4] addresses T2, I84V mutant protease (Human immunodeficiency virus type 1 group M subtype B, UniProt P12497, I572V/Q495K).
T2 construct: the gene encoding the desired HIV-1 protease was subcloned into the heat-inducible pXC35 expression vector; made in house
The arrangement: method as in Lockbaum et al. (ACS Infect Dis. 2019 Feb 8; 5 (2): 316–325). As to conditions: I84V drug-resistant protease variant; previously reported; ref Lockbaum et al. (ACS Infect Dis. 2019 Feb 8; 5 (2): 316–325); cited from earlier work.

Assay [5] deals with T3, I50V/A71V mutant protease (Human immunodeficiency virus type 1 group M subtype B, UniProt P12497, A559V/I538V/Q495K).
T3 construct: the gene encoding the desired HIV-1 protease was subcloned into the heat-inducible pXC35 expression vector; made in house
The arrangement: method as in Lockbaum et al. (ACS Infect Dis. 2019 Feb 8; 5 (2): 316–325). As to conditions: I50V/A71V drug-resistant protease variant; previously reported; ref Lockbaum et al. (ACS Infect Dis. 2019 Feb 8; 5 (2): 316–325); cited from earlier work.

For `CC[C@H](C)CN(C[C@@H](O)[C@H](Cc1ccccc1)NC(=O)O[C@H]1CO[C@H]2OCC[C@H]21)S(=O)(=O)c1ccc(N)cc1` [UMASS-1], the EC50 (commonly the concentration giving half of the maximal effect) in assay [1] turned out to be 5900 ± 1000 pM. Also, the results for the “Abundance of variant at the last time point” value in assay [2] (variant 10I/16E/32I/33F/46I/54L/71V/76V/82I/84V), in assay [2] (variant 10I/16E/32I/33F/46I/54L/71V/76V/82I/84V/91S) and in assay [2] (variant 10I/32I/33F/46I/54L/71V/76V/82I/84V) were 55.4%, 6.2% and 21.9%, respectively. Further, the values for the Ki in assay [3], in assay [4] and in assay [5] were under 5 pM, 26.1 ± 3.7 pM and 110 ± 8.8 pM, respectively.
